Assay results: the supplement of paper PMC11061612

Assays:
[1] = test system: NCI-H1666 (Lung Adenocarcinoma); experiment: combination Emax (second highest fraction inhibited in the dose matrix, 72 h); higher = more inhibition; extreme values may be limits of the assay
Outline: (§1)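 Cell lines in DMEM/F12 or RPMI with 10% FBS were plated in 1536-well plates, held 24 hours at 37°C, 5% CO2, then given two-drug dose matrices for 72 hours (DMSO typically 0.2%). Viability was read by CellTiter-Glo 2.0 luminescence and scaled as inhibition from 0 (vehicle wells) to 1 (blank wells). Combination Emax is the second-highest inhibition in the matrix; Bliss excess is observed combination effect minus expected EA + EB − EA·EB, EA and EB being single-agent effects.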

[2] = test system: NCI-H64 (Small Cell Lung Carcinoma); experiment: as above
Outline: as §1

IGR-37 (Melanoma) [3] = experiment: as above
Outline: as §1

[4] = test system: PANC-10-05 (Pancreatic Carcinoma); experiment: as above
Outline: as §1

[5] = test system: KARPAS-422 (B-Cell Non-Hodgkin's Lymphoma); experiment: as above
Outline: as §1

[6] = test system: BICR22 (Oral Cavity Carcinoma); experiment: as above
Outline: as §1

[7] = test system: ECC10 (Gastric Carcinoma); experiment: as above
Outline: as §1

[8] = test system: TT (Thyroid Gland Carcinoma); experiment: as above
Outline: as §1

[9] = test system: NCI-H2066 (Squamous Cell Lung Carcinoma); experiment: as above
Outline: as §1

[10] = test system: ONS-76 (Other Solid Carcinomas); experiment: as above
Outline: as §1

U-2-OS (Osteosarcoma) [11] = experiment: as above
Outline: as §1

[12] = test system: COLO-320-HSR (Colorectal Carcinoma); experiment: as above
Outline: as §1

[13] = test system: NCI-H1581 (Non-Small Cell Lung Carcinoma); experiment: as above
Outline: as §1

[14] = test system: CAPAN-2 (Pancreatic Carcinoma); experiment: as above
Outline: as §1

[15] = test system: VCaP (Prostate Carcinoma); experiment: as above
Outline: as §1

NY (Osteosarcoma) [16] = experiment: as above
Outline: as §1

[17] = test system: CCK-81 (Colorectal Carcinoma); experiment: as above
Outline: as §1

FU97 (Gastric Carcinoma) [18] = experiment: as above
Outline: as §1

[19] = test system: NCI-H1666 (Lung Adenocarcinoma); experiment: Bliss excess, mean over the matrix (fraction); higher = more synergy
Outline: as §1

[20] = test system: NCI-H64 (Small Cell Lung Carcinoma); experiment: as above
Outline: as §1

IGR-37 (Melanoma) [21] = experiment: as above
Outline: as §1

[22] = test system: PANC-10-05 (Pancreatic Carcinoma); experiment: as above
Outline: as §1

[23] = test system: KARPAS-422 (B-Cell Non-Hodgkin's Lymphoma); experiment: as above
Outline: as §1

[24] = test system: BICR22 (Oral Cavity Carcinoma); experiment: as above
Outline: as §1

[25] = test system: ECC10 (Gastric Carcinoma); experiment: as above
Outline: as §1

[26] = test system: TT (Thyroid Gland Carcinoma); experiment: as above
Outline: as §1

[27] = test system: NCI-H2066 (Squamous Cell Lung Carcinoma); experiment: as above
Outline: as §1

[28] = test system: ONS-76 (Other Solid Carcinomas); experiment: as above
Outline: as §1

U-2-OS (Osteosarcoma) [29] = experiment: as above
Outline: as §1

[30] = test system: COLO-320-HSR (Colorectal Carcinoma); experiment: as above
Outline: as §1

[31] = test system: NCI-H1581 (Non-Small Cell Lung Carcinoma); experiment: as above
Outline: as §1

[32] = test system: CAPAN-2 (Pancreatic Carcinoma); experiment: as above
Outline: as §1

[33] = test system: VCaP (Prostate Carcinoma); experiment: as above
Outline: as §1

NY (Osteosarcoma) [34] = experiment: as above
Outline: as §1

[35] = test system: CCK-81 (Colorectal Carcinoma); experiment: as above
Outline: as §1

FU97 (Gastric Carcinoma) [36] = experiment: as above
Outline: as §1
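Wherever Bliss excess, mean over the matrix is given: after 72 h of two-drug dosing.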

Structure (SMILES)	combination Emax [1]	combination Emax [2]	combination Emax (IGR-37 (Melanoma) [3])	combination Emax [4]	combination Emax [5]	combination Emax [6]	combination Emax [7]	combination Emax [8]	combination Emax [9]	combination Emax [10]	combination Emax (U-2-OS (Osteosarcoma) [11])	combination Emax [12]	combination Emax [13]	combination Emax [14]	combination Emax [15]	combination Emax (NY (Osteosarcoma) [16])	combination Emax [17]	combination Emax (FU97 (Gastric Carcinoma) [18])	Bliss excess [19]	Bliss excess [20]	Bliss excess (IGR-37 (Melanoma) [21])	Bliss excess [22]	Bliss excess [23]	Bliss excess [24]	Bliss excess [25]	Bliss excess [26]	Bliss excess [27]	Bliss excess [28]	Bliss excess (U-2-OS (Osteosarcoma) [29])	Bliss excess [30]	Bliss excess [31]	Bliss excess [32]	Bliss excess [33]	Bliss excess (NY (Osteosarcoma) [34])	Bliss excess [35]	Bliss excess (FU97 (Gastric Carcinoma) [36])
C[C@@H](Oc1cc(-c2cnn(C3CCNCC3)c2)cnc1N)c1c(Cl)ccc(F)c1Cl [Crizotinib] + CC1=C(C(=CC=C1)Cl)NC(=O)C2=CN=C(S2)NC3=CC(=NC(=N3)C)N4CCN(CC4)CCO [Dasatinib] (first compound max 10 µM, 7x7, partner max 2 µM)	0.807	0.594	0.645	0.813	0.886	0.89	0.679	0.274	0.587	0.894	0.617	0.699	0.359	0.78	0.587	0.519	0.892	0.446	-0.0103	-0.0238	-0.0317	0.0003	0.0411	0.0433	-0.0263	-0.0751	-0.0202	0.0996	0.0199	-0.0425	-0.0363	0.0443	-0.0665	0.0882	0.0191	-0.0237
C[C@@H](Oc1cc(-c2cnn(C3CCNCC3)c2)cnc1N)c1c(Cl)ccc(F)c1Cl [Crizotinib] + Cn1cnc2c(F)c(Nc3ccc(Br)cc3Cl)c(C(=O)NOCCO)cc21 [Selumetinib] (first compound max 10 µM, 7x7, partner max 10 µM)	0.503	0.56	0.922	0.643	0.723	0.281	0.858	0.479	0.513	0.65	0.831	0.614	0.519	0.639	0.652	0.279	0.794	0.319	-0.0892	-0.012	0.0066	0.006	-0.063	-0.0493	-0.0116	0.0207	-0.0245	-0.0482	0.0015	-0.0696	0.0228	0.0244	-0.0622	-0.0158	-0.0256	-0.0414
CS(=O)(=O)CCNCc1ccc(-c2ccc3ncnc(Nc4ccc(OCc5cccc(F)c5)c(Cl)c4)c3c2)o1 [Lapatinib] + Cn1cnc2c(F)c(Nc3ccc(Br)cc3Cl)c(C(=O)NOCCO)cc21 [Selumetinib] (first compound max 10 µM, 7x7, partner max 10 µM)	0.839	0.14	0.856	0.556	0.562	0.924	0.951	0.305	0.338	0.748	0.647	0.264	0.395	0.424	0.182	0.329	0.944	0.906	0.064	-0.0224	-0.0934	0.0247	0.0289	0.128	-0.0082	-0.0416	-0.0156	-0.0123	-0.0563	0.0181	0.031	0.0147	-0.0677	0.0033	-0.0522	-0.0116
O=C(c1cc(Cc2n[nH]c(=O)c3ccccc23)ccc1F)N1CCN(C(=O)C2CC2)CC1 [Olaparib] + CC1(C)CCC(CN2CCN(c3ccc(C(=O)NS(=O)(=O)c4ccc(NCC5CCOCC5)c([N+](=O)[O-])c4)c(Oc4cnc5[nH]ccc5c4)c3)CC2)=C(c2ccc(Cl)cc2)C1 [Venetoclax] (first compound max 10 µM, 7x7, partner max 1 µM)	0.104	0.166	0.3	0.125	0.611	0.0823	0.706	0.208	0.136	0.17	0.109	0.176	0.234	0.0502	0.101	0.188	0.148	0.104	-0.0661	0.0167	0.0143	-0.059	0.0071	-0.0428	0.0155	-0.0158	-0.0521	-0.014	-0.0331	0.0038	-0.0035	-0.0398	-0.0434	0.0029	-0.0382	-0.0322
